The results in this text go back to patent publication EP0357061B1, “Angiogenesis inhibitory agent” (priority 1988, dated 1990).

In data set [1] the test system is Human umbilical vein endothelial cells (HUVE). Put plainly: Inhibition of human endothelial cell growth (MTT). The class given is cell-based. The settings on record: rbFGF 2 ng/ml, 5 day culture; for IC50: Homo sapiens, Endothelial cell, 120 h, read-out: (IC₅₀). The method, then:
Human umbilical vein endothelial cells (HUVE) were isolated by perfusion of an umbilical vein with a trypsin-containing medium. HUVE were cultured in GIT medium (Diago Eiyou Kagaku, Co., Japan) supplemented with 2.5% fetal bovine serum and 2.0 ng/ml of recombinant human basic fibroblast growth factor (rbFGF, Biotechnology Research Laboratories, Takeda, Osaka, Japan) at 37°C under 5% CO₂ and 7% O₂. HUVE were plated on 96-well microtiter plates (Nunc, 1-67008) at the cell density of 2 x 10³/100 »l of medium. The following day, 100 »l of medium containing rbFGF (2 ng/ml at the final concentration) and each compound (I) (shown by Example Numbers) at various concentrations were added to each well. […] After 5 day culture, medium was removed, 100 »l of 1 mg/ml of MTT (3-(4,5-dimethyl-2-thiazolyl)- 2,5-diphenyl-2H-tetrazolium bromide) solution was added to wells, and microtiters were kept at 37°C for 4 hours. Then, 100 »l of 10% sodium dodecyl sulfate (SDS) solution was added to wells, microtiters were kept at 37° for 5-6 hours. To determine the effects on cell number, the optical density ([…]) of each well was measured using an optical densitometer. […]

Data set [2] concerns bFGF-induced angiogenesis. As to the kind of experiment: rat cornea micropocket method (angiogenesis inhibitory activity). Conditions: rats with angiogenesis inhibitory activity / rats tested, sample pellet 20 »g. The class given is in vivo, Sprague-Dawley rats. As to the method:
The product compound (I) obtained in the examples given below were evaluated for angiogenesis inhibitory activity by the rat cornea micropocket method.
Essentially the method of Gimbrone et al. [J. National Cancer Institute, 52, 413-419 (1974)] was followed. Thus, adult male Sprague-Dawley rats (11 to 16 weeks of age) were anesthetized with nembutal and locally anesthetized by instillation of xylocaine eyedrops onto the eyeball. The cornea was incised to a length of about 2 mm at about 2mm inside from the corneal circumference by means of an injection needle, and a sustained release pellet containing basic fibroblast growth factor (bFGF; bovine brain-derived, purified product; R & D) and a sustained release pellet containing the test sample were inserted side by side into the incision so that the bFGF pellet was located on the central side in the cornea. In the control group, the bFGF pellet and a sample-free pellet were inserted into the cornea. After 7 days and after 10 days, the cornea was observed under a stereoscopic microscope.
The sustained release pellets were prepared in the following manner. An ethylene-vinyl acetate copolymer (Takeda Chemical Industries) was dissolved in dichloromethane to a concentration of 8%. A 3-»l portion of the solution was air-dried on a glass dish, an aqueous solution of bFGF (250 ng) was then placed thereon and air-dried and, finally 3 »l of the above ethylene-vinyl acetate copolymer solution was placed further thereon and air-dried to give a laminate consisting of two copolymer layers and a bFGF layer sandwiched therebetween. This sandwich sheet was made round into a bFGF pellet. The test sample pellets were prepared by dissolving each sample in ethanol in a concentration of 20 »g/2 »l, mixing the solution (2 »l) with 6 »l of an ethylene-vinyl acetate copolymer solution, air-drying the mixed solution on a glass dish and making the thus-obtained sheet round.

Data set [3] has as its system mouse reticulum cell sarcoma (M 5076). Put plainly: Suppression of tumor formation in vivo (M 5076). On the set-up: species or system C57BL/6N mice. The settings on record: 30 mg/day subcutaneously, 10 injections over 12 days; tumor volume one day after the final injection. An excerpt:
The tumor used in this assay was mouse reticulum cell sarcoma (M 5076), maintained by intraperitoneal transplantation into male C57BL/6N mice. The tumor cells in ascites were collected by centrifugation, and suspended in saline. The cell suspension (2 x 10⁶ cells/100 »l/mouse) was inoculated into right flanks of mice. Tumor-bearing mice were subcutaneously treated with the compound (I) (shown by Example Numbers) suspended in 5% arabic gum solution containing 1% of ethanol, for 12 days beginning one day after tumor inoculation (10 injections). The tumor growth was determined by measuring tumor size in two directions with calipers at intervals of a few days. The tumor volumes were calculated by the following formula. Tumor volume (mm³) = length x (width)² […]. [formula]

Data set [4] concerns Chick Chorioallantoic Membranes. Put plainly: shell-less chorioallantoic membrane (CAM) assay. The class given is in vivo. The settings on record: after 48 - 72 hours. As to the method: The shell-less chorioallantoic membrane (CAM) assay was carried out by the method of Folkman et al. (R.Crum. S.Szabo and J.Folkman; Science. 230. 1375 (1985)) as follows: three-day chick embryos were removed from their shells to petri dishes (Falcon 1005) under sterile hood and cultured for further 3 days.
AGM-1470 was dissolved to a 0.45% methylcellulose aqueous solution and aliquots of 10 »l were pipetted onto Teflon rods. After the solution had dried, the methylcellulose disks (about 2 mm in diameter) containing the compound were implanted on the CAM of 6-day embryos.
An avascular zone represents a region in which regression of pre-existing vessels has occured.
Percent of avascular zones was calculated by counting the disks forming avascular zones per the total disks tested. In each group there were 12 to 16 embryos.

The subject of the next data set is B16 Mouse Melanoma. The class given is in vivo. As to the method: Using the B16 Mouse Melanoma model described in Folkman et al., Science, 221:719-725 (1983), the angiogenesis inhibitory activity of AGM-1470 was further evaluated. Treatment (Rx) usually started when tumors were approximately 70-100 mm³, approximately 9 to 10 days after inoculation. Tumors were matched for size before inclusion in treated and untreated groups. AGM-1470 was dissolved in isotonic solution by incubating with glass beads and vigorously shaking overnight at 4°C. This preparation was administered subcutaneously at 30 mg/kg every other day.
Tumor growth is presented as a T/C ratio, as defined below. In essence, a ratio equal to "+ 1" means no inhibition, a ratio equal to "0" means complete suppression of growth, and a negative ratio indicates tumor regression. [formula]

Data set [5] concerns Bovine capillary endothelial cells. Put plainly: Boyden chamber assay, capillary endothelial cell migration. The class given is cell-based. The settings on record: endothelial mitogen 200 »g/ml, 4 hours. As to the method:
The Boyden chamber assay was carried out using a modification of the method of Falk et al., J. Immunol. Meth., 33:239-247 (1980) as follows: Bovine capillary endothelial cells were plated at 1.5 x 10⁴ cells per well in serum-free DMEM (Dulbecco's Modified Eagle's Medium) on one side of nucleopore filters pre-coated with fibronectin (7.3 »g fibronectin/ml PBS). […] Cells were exposed to endothelial mitogen (Biomedical Technologies, Massachusetts) at 200 »g/ml and different concentrations of the AGM-1470 in serum-free DMEM for 4 hours at 37°C. At the end of this incubation, the number of cells that migrated through 8» pores in the filters was determined by counting cells with an ocular grid at 100 X in quadruplicate.

In brackets after ≈: the same amount, converted by molar mass. Like-named read-outs stand apart in the source and are kept apart here. Marks after values point to notes of the source that are not given here.

Turning to `CO[C@@H]1[C@H](OC(=O)NC(=O)CCl)CC[C@]2(CO2)[C@H]1[C@@]1(C)O[C@@H]1CC=C(C)C` [Example 8, O-Chloroacetylcarbamoylfumagillol], the IC50 in data set [1] was 0.01 ng/mL (≈ 0.0249 nM); in data set [5] (Bos taurus, Endothelial cell, read-out: Half maximal inhibition of endothelial mitogen-induced migration), about 0.1 ng/mL (≈ 0.249 nM). Also, the Inhibition rate in data set [2] (judged after 7 days) is listed as 6/6*. Moreover, the “T/C (%)” value in data set [3] came to 14%. Besides, the “percent of avascular zones” value in data set [4] (dose 1 »g/10 »l methylcellulose) was 33; in data set [4] (dose 10 »g/10 »l methylcellulose), 62; in data set [4] (dose 25 »g/10 »l methylcellulose), 100. In addition, the “treated remained alive past day 55” value in the data set with B16 Mouse Melanoma (30 mg/kg subcutaneously every other day) is “Day 37 100% untreated dead 50% AGM-1470 treated dead (50% of treated remained alive past day 55)”. In addition, the AGM-1470 treated dead entry in the data set on B16 Mouse Melanoma (Day 37 (100% untreated dead), 30 mg/kg subcutaneously every other day) is “Day 37 100% untreated dead 50% AGM-1470 treated dead (50% of treated remained alive past day 55)”. Also, the toxicity result in the data set on B16 Mouse Melanoma (mouse, in vivo) is recorded as “little or no toxicity”. Also, the T/C came to 0.47 with B16 Mouse Melanoma (time of Rx 2 wk, 30 mg/kg subcutaneously every other day) and 0.20 with B16 Mouse Melanoma (time of Rx 3 wk, 30 mg/kg subcutaneously every other day). Besides, in data set [5] (dose of 100 »g/ml), the “inhibition of cell migration” value is “completely inhibited”. Further, the “Significant inhibition of migration, doses as low as” value in data set [5] is 10 femptograms/ml.

For the compound `CO[C@@H]1[C@H](OC(=O)NC(=O)CCl)CC[C@]2(CO2)[C@H]1[C@@]1(C)O[C@@H]1CCC(C)C` [Example 51, O-Chloroacetylcarbamoyldihydrofumagillol], the IC50 in data set [1] was 0.14 ng/mL (≈ 0.347 nM). Further, in data set [2] (judged after 10 days), the Inhibition rate is listed as 7/14. Further, the “T/C (%)” value in data set [3] worked out at 22%.

In the case of `CO[C@@H]1[C@H](OC(=O)NCC[N+](C)(C)C)CC[C@]2(CO2)[C@H]1[C@@]1(C)O[C@@H]1CC=C(C)C` [Example 56, O-[2-(N,N,N-Trimethylammonio)ethylcarbamoyl]fumagillol iodide], the Inhibition rate in data set [2] (judged after 10 days) is listed as 4/7.

In the case of `CO[C@@H]1[C@H](OC(=O)N(CCN(C)C)C(C)=O)CC[C@]2(CO2)[C@H]1[C@@]1(C)O[C@@H]1CC=C(C)C` [Example 57, O-[N-Acetyl-(2-dimethylaminoethylcarbamoyl)]fumagillol], in data set [2] (judged after 10 days), the Inhibition rate is 6/6.

With `C=CC(=O)NC(=O)O[C@@H]1CC[C@]2(CO2)[C@@H]([C@@]2(C)O[C@@H]2CC=C(C)C)[C@@H]1OC` [Example 58, O-Acryloylcarbamoylfumagillol], the Inhibition rate in data set [2] (judged after 10 days) is recorded as 6/6.

As to `CO[C@@H]1[C@H](OC(=O)NC(=O)CSc2nc3ccccc3o2)CC[C@]2(CO2)[C@H]1[C@@]1(C)O[C@@H]1CC=C(C)C` [Example 60, O-[(2-Benzoxazolyl)thioacetylcarbamoyl]fumagillol], the Inhibition rate in data set [2] (judged after 10 days) is 4/6.

For `CO[C@@H]1[C@H](OC(=O)NC(=O)CSc2nc3ccccc3[nH]2)CC[C@]2(CO2)[C@H]1[C@@]1(C)O[C@@H]1CC=C(C)C` [Example 61, O-[(2-Benzoimidazolyl)thioacetylcarbamoyl]fumagillol], in data set [2] (judged after 10 days), the Inhibition rate was 7/7.

As to `CO[C@@H]1[C@H](OC(=O)NC(=O)CSc2cccc3cccnc23)CC[C@]2(CO2)[C@H]1[C@@]1(C)O[C@@H]1CC=C(C)C` [Example 62, O-[(8-Quinolyl)thioacetylcarbamoyl]fumagillol], the Inhibition rate in data set [2] (judged after 10 days) is given as 7/7.

With `CO[C@@H]1[C@H](OC(=O)NC(=O)CSc2ccccn2)CC[C@]2(CO2)[C@H]1[C@@]1(C)O[C@@H]1CC=C(C)C` [Example 63, O-[(2-Pyridyl)thioacetylcarbamoyl]fumagillol], in data set [2] (judged after 10 days), the Inhibition rate was 6/6.

On to `CO[C@@H]1[C@H](OC(=O)NC(=O)CSc2ccncc2)CC[C@]2(CO2)[C@H]1[C@@]1(C)O[C@@H]1CC=C(C)C` [Example 64, O-[(4-Pyridyl)thioacetylcarbamoyl]fumagillol], for which, in data set [2] (judged after 10 days), the Inhibition rate is recorded as 5/5.

Take `CO[C@@H]1[C@H](OC(=O)NC(=O)CSC)CC[C@]2(CO2)[C@H]1[C@@]1(C)O[C@@H]1CC=C(C)C` [Example 65, O-(Methylthioacetylcarbamoyl)fumagillol]: in data set [2] (judged after 10 days), the Inhibition rate was 8/8.

As to `COC1C(OC(=O)NC(=O)CSc2cnn[nH]2)CCC2(CO2)C1C1(C)OC1CC=C(C)C` (centres unmarked) [Example 67, O-[(1,2,3-Triazol-5-yl)thioacetylcarbamoyl]fumagillol], the Inhibition rate in data set [2] (judged after 10 days) is on record as 5/5.

On to `COC1C(OC(=O)NC(=O)CSc2cc[n+](C)cc2)CCC2(CO2)C1C1(C)OC1CC=C(C)C` (centres unmarked) [Example 69, O-[(N-Methylpyridin-4-ylium)thioacetylcarbamoyl]fumagillol iodide], for which the Inhibition rate in data set [2] (judged after 10 days) is listed as 6/6.

Regarding `CCOC(=O)NC(=O)OC1CCC2(CO2)C(C2(C)OC2CC=C(C)C)C1OC` (centres unmarked) [Example 70, O-[N-(Ethoxycarbonyl)carbamoyl]fumagillol], the Inhibition rate in data set [2] (judged after 10 days) is reported as 5/5.

Consider `COC1C(OC(=O)NC(=O)NC(=O)c2ccccc2)CCC2(CO2)C1C1(C)OC1CC=C(C)C` (centres unmarked) [Example 75, O-(N'-Benzoylallophanoyl)fumagillol], for which the Inhibition rate in data set [2] (judged after 10 days) is given as 8/8.

For “O-Chloroacetylcarbamoyl-6'b-hydroxyfumagillol [Example 76]”, the “(IC₅₀)” value in data set [1] was 0.12 ng/mL. Besides, the “T/C (%)” value in data set [3] was 29%.
